Patent US10995068B2, “Synthetic sphingolipid-like molecules, drugs, methods of their synthesis and methods of treatment” (The Regents of the University of California, priority 2015, dated 2021)
Where two headings read alike, the source gives them in different places.

Tests used:
[1] = test system: Breast (MDA-MB-231) cancer cell line; experiment: IC50 in cancer cell lines (Table 3), breast; type: cell-based, human; conditions: Mean ± SEM, n ≥ 3
Protocol: (§1) Having observed a suitable potency of some embodiments of the invention, including, at least with compounds 3-6, 14 in prostate cancer cell lines, other cancer cell lines were tested with these compounds. […] Compounds that were active in prostate cancer cell lines also killed BCR-Abl-positive leukemia cells with similar potency to FTY720.
(§2) Cell culture studies: Sup-B15 cells are maintained at 2-3 million/mL in RPMI 1640 (Mediatech) supplemented with 10% fetal calf serum (FCS, Sigma-Aldrich), 10 mM Hepes (Mediatech), 55 μM β-mercaptoethanol (Sigma-Aldrich), 2 mM L-glutamine (Mediatech), and antibiotics. All adherent cells are maintained at 70-80% confluence. Cell are cultured in the following media: PC3 & A549, Ham's F12K (Corning Cell Gro) supplemented with 10% FCS and antibiotics; DU145 cells, MEM (Corning Cell Gro) supplemented with 10% FCS, 1 mM sodium pyruvate (Mediatech), and antibiotics; SW620 & MDA-MB-231, DMEM (Corning Cell Gro) with 10% FCS, 1 mM sodium pyruvate (Mediatech), and antibiotics; Panc-1 cells, DMEM (Corning Cell Gro) supplemented with 10% FCS and antibiotics. All of the above cell lines are available from the ATCC.
(§3) Viability assays: Cell Titer Glo assays (Cell Titer Glo Luminescent Cell Viability Assay kit, cat #G7571, Promega Corporation) are performed in clear bottom 96-well black cell culture plates (cat #655090, Greiner Bio-One, NC, USA). After plating at 1,000 cells/well in volume of 100 μl, cells are left undisturbed for at least 24 h before drug addition. After 72 h, cells are prepared for analysis by adding 10 μl of 0.1% Triton-X100 in PBS with shaking for 1 min at room temperature (RT). Cell Titer-Glo cell lysis reagent (20 μl) is then added followed by 1 min of shaking and a 10 min incubation in the dark at RT. Luminescence is detected using an IVIS imaging system (IVIS Lumina II, Perkin Elmer, USA). […] IC50s are determined using GraphPad Prism (GraphPad Software, Inc, La Jolla, Calif.). SupB-15 viability was determined by flow cytometry. Cell Titer Glo assays were performed with the other cell lines.

[2] = test system: PC3 prostate cancer cells; experiment: Cell Titer Glo proliferation assay in PC3; type: cell-based, human; conditions: for IC50: Cell Titer Glo, 72 h, Mean ± SEM, n ≥ 3, read-out: IC50 values in prostate cancer cell lines, PC3; for activity in the prostate cancer cell proliferation assay (in words): PC3 and DU145, Cell Titer Glo
Procedure, shortened: (§4)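 Cells plated at 1,000 cells/well and left at least 24 h, then exposed to compound for 72 h. Permeabilised with 0.1% Triton-X100, lysed with Cell Titer-Glo reagent, luminescence read; IC50 from dose-response curves. PC3 grown in F12K with 10% FCS, DU145 in MEM with 10% FCS and pyruvate.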

[3] = test system: Pancreas (PANC-1) cancer cell line; experiment: IC50 in cancer cell lines (Table 3), pancreas; type: cell-based, human; conditions: Mean ± SEM, n ≥ 3
Protocol: as §1, §2, §3

[4] = test system: Colon (SW-620) cancer cell line; experiment: IC50 in cancer cell lines (Table 3), colon; type: cell-based, human; conditions: Mean ± SEM, n ≥ 3
Protocol: as §1, §2, §3

[5] = test system: PC3 prostate cancer cells; experiment: Cell viability by vital dye exclusion and flow cytometry in PC3; type: cell-based, human; conditions: vital dye exclusion (DAPI) and flow cytometry, 72 h
Protocol: Thus, to determine whether analogues in accordance with embodiments of the invention are cytotoxic, studies were conducted using vital dye exclusion and flow cytometry (Table 2).
as §3

Leukemia (SupB-15) cells = experiment: IC50 in cancer cell lines (Table 3), leukemia; type: cell-based, human; conditions: flow cytometry, Mean ± SEM, n ≥ 3
Protocol: as §1, §2, §3

[6] = test system: DU145 prostate cancer cells; experiment: Cell Titer Glo proliferation assay in DU145; type: cell-based, human; conditions: Mean ± SEM, n ≥ 3, read-out: IC50 values in prostate cancer cell lines, DU145
Procedure, shortened: as §4

[7] = test system: fusion of LC3-positive autophagosomes with LAMP1-positive lysosomes; experiment: Autophagosome-lysosome fusion in chloroquine-treated cells; type: cell-based
Protocol: It is known in the art that cells adapt to nutrient stress by increasing autophagic flux. However, autophagosome-lysosome fusion reactions depend upon […] release via TRPML1 channels that are activated by PI(3,5)P2. […] Chloroquine (CQ) is molecule that stabilizes the transient autophagosomes. Cells were treated with CG to stabilize autophagolysosomes and subsequently treated with FTY720, SH-BC-893, or YM201636. […] Phosphatidylinositol 5-Phosphate (PI(5)P) is essential for autophagosome biogenesis upon glucose depletion. PI(5)P is produced by dephosphorylating PI(3,5)P2, and thus PI(5)P might also be mis-localized in SH-BC-893-treated cells, and thus also contributing to the disruption of autophagosome formation. […] Thus, SH-BC-893 inhibited both autophagosome formation and degradation. As a control, Vac14 over-expression limited vacuolation (FIGS. 55F, 61F, and 62B) and rescued autophagic flux in SH-BC-893-treated cells (FIGS. 61A, 61B, 61D and 61E).
Light Microscopy: Brightfield and epifluorescence microscopy were conducted using a Nikon TE2000-S fluorescence microscope; confocal microscopy was performed on a Zeiss LSM780 confocal microscope or Nikon Eclipse Ti spinning disk confocal microscope. […] Co-localization was determined using JACoP plugin in ImageJ software. Macropinocytosis was measured after 16 h incubation in serum-free DMEM. p53−/−; LSL-K-RasG12D MEFs before (LSL) or after (KRasG12D) introduction of Cre were serum starved for 16 h and then treated with macropinocytosis inhibitor 5-(N-ethyl-N-isopropyl) amiloride (EIPA, 75 μM) for 1 h or SH-BC-893 for 6 h. Oregon Green dextran (Life Technologies, cat #D7173) (1 mg/mL) and Lysotracker Red (Life Technologies, cat #L-7525) (1:2,000 dilution) were added for 30 min and live cells were evaluated on the spinning disc confocal microscope. […]

[8] = test system: Lung (A-549) cancer cell line; experiment: IC50 in cancer cell lines (Table 3), lung; type: cell-based, human; conditions: Mean ± SEM, n ≥ 3
Protocol: as §1, §2, §3

IC50 [1] [µM]	IC50 [2] [µM]	IC50 [3] [µM]	IC50 [4] [µM]	IC50 [5] [µM]	IC50 (Leukemia (SupB-15) cells) [µM]	IC50 ([6]; 72 h) [µM]	IC50 [8] [µM]	Structure (SMILES)	IC50 ([1]; Homo sapiens, MDA-MB-231) [µM]	IC50 ([2]; Homo sapiens) [µM]	IC50 ([3]; Homo sapiens, PANC-1) [µM]	IC50 ([4]; Homo sapiens, SW-620) [µM]	IC50 ([5]; Homo sapiens) [µM]	IC50 (Leukemia (SupB-15) cells; Homo sapiens, SUP-B15) [µM]	IC50 ([6]; Homo sapiens, DU-145, 72 h) [µM]	fusion of LC3-positive autophagosomes with LAMP1-positive lysosomes [7]	IC50 ([8]; Homo sapiens, A549) [µM]	activity in the prostate cancer cell proliferation assay (in words) [2]
–	–	–	–	–	–	–	–	CCCCCCCCc1ccc(CCC(N)(CO)CO)cc1.Cl [FTY720, 2-Amino-2-[2-(4-octylphenyl)ethyl]propane 1,3-diol hydrochloride, reference compound]	4 ± 0.1	2.6 ± 0.2	4.6 ± 0.5	2.8 ± 0.1	4.8 ± 0.1	6.8 ± 0.7	3.1 ± 0.2	reduced fusion	6 ± 0.4	–
–	–	–	–	–	–	–	–	CCCCCCCCc1ccc([C@H]2CCN[C@@H]2CO)cc1.Cl [Compound 5, (2S,3R)-2-(hydroxymethyl)-3-(4-octylphenyl)Pyrrolidinium chloride]	2.1 ± 0.2	4 ± 0.7	3.3 ± 0.5	2.5 ± 0.1	5.5 ± 0.4	5.1 ± 0.9	3.8 ± 0.4	reduced fusion	8.9 ± 1.4	as active as FTY720
4.9 ± 0.6	3 ± 0.4	5 ± 0.9	2.1 ± 0.2	5.4 ± 0.6	5.9 ± 0.1	3.7 ± 0.4	8.4 ± 1.2	CCCCCCCCc1ccc([C@@H]2CCN[C@H]2CO)cc1.Cl [Compound 6]	–	–	–	–	–	–	–	–	–	as active as FTY720
